Key:
[1] = target: T1, Purified recombinant NBD1 (Homo sapiens, UniProt P13569); test: Aggregation analysis using differential static light scattering (DSLS): thermal stability of NBD1; format: binding; settings: NBD1 0.2 mg/ml; Tagg of compound well minus average Tagg of DMSO control wells
T1 construct: Purified recombinant NBD1 was produced using previously described methods; made in house
Experimental: Purified recombinant NBD1 was produced using previously described methods (A. Schmidt, J. L. Mendoza, P. J. Thomas (2011) Biochemical and Biophysical Approaches to Probe CFTR Structure (365-376) M. D. Amaral, K. Kunzelmann (eds.), Cystic Fibrosis, Methods in Molecular Biology 741, Springer Science+Business Media). The effect of test compounds on thermal stability of NBD1 was evaluated by differential static light scattering (DSLS) using the Harbinger Stargazer-384 instrument (Epiphyte Three, Toronto, Canada). Test compounds were dissolved and diluted to desired concentrations in 100% DMSO. The compounds or DMSO controls (100 nL) were stamped into wells of a […] low volume optical plate (Corning Inc., Corning, NY) using the Echo 555 acoustic liquid handler (Labcyte Inc., San Jose, CA).
NBD1 protein was diluted to 0.2 mg/ml in S200 buffer (50 mM Tris-HCl, 150 mM NaCl, 5 mM MgCl2, 2 mM ATP, 2 mM DTT, pH7.6) containing 1% glycerol. 10 uL of protein solution was aliquoted into the 384-well plate harboring the test compounds and 10 uL mineral oil was overlaid onto the protein solution, using the epMotion robotic liquid handler (Eppendorf North America, Hauppauge, NY). After placing into the Stargazer instrument, the plate was heated at 1° C. per minute to 70° C. Images were captured from 25° C. to 70° C. every 0.5° C. At the end of the experiment run, instrument software integrated image files and analyzed data automatically. A […] regression curve was generated for each well, representing the increase in light scattering over time. A temperature of aggregation (Tagg) was calculated based on the inflection point of the curve. To better compare data across experiments the average Tagg for DMSO control wells was calculated and subtracted from values for wells containing compounds to obtain a “ΔTagg” value. These ΔTagg values reflect stabilizing efficacy of the compounds. As set forth in Table 2 below, an ΔTagg value less than or equal to 5° C. is marked “A”; a value above 5° C. and less than or equal to 10° C. is marked “B”; a value greater than 10° C. and less than or equal to 25° C. is marked “C”.

[2] = test system: Primary human bronchial epithelial cells from a ΔF508 homozygous CF donor (CF-HBE cells); test: TECC24 recording of CFTR-mediated transepithelial chloride transport, AUC fold over benchmark VX-809 @10 μM; format: cell-based; settings: 48 hours incubation, AUC of forskolin-stimulated IEQ
Experimental: The effects of a test agent on CFTR-mediated transepithelial chloride transport is measured using TECC24 recording analysis. Test agents are solubilized in DMSO. Solubilized test agents are mixed with incubation medium containing DMEM/F12, Ultroser G (0.5%; Crescent Chemical, catalog #67042), Hyclone Fetal Clone II (2%; GE Healthcare, catalog #SH30066.02), bovine brain extract (0.25%; Lonza, catalog #CC-4098), insulin ([…]), IL-13 (10 ng/mL), hydrocortisone (20 nM), transferrin ([…]), triiodothyronine (500 nM), ethanolamine (250 nM), epinephrine (1.5 μM), phosphoethanolamine (250 nM), and retinoic acid (10 nM). Primary human bronchial epithelial cells from a ΔF508 homozygous CF donor (CF-HBE cells; from University of North Carolina Cystic Fibrosis Tissue Procurement Center), grown on Transwell HTS 24-well cell culture inserts (Costar, catalog #3378), are exposed to test agents or controls dissolved in incubation medium. The CF-HBE cells are cultured at 36.5° C. for 48 hours before TECC24 recordings are performed in the presence or absence of test agent, a positive control or vehicle (DMSO).
Following incubation, the transwell cell culture inserts containing the test agent or control-treated CF-HBE cells are loaded onto a TECC24 apparatus (TECC v7 or MTECC v2; EP Design) to record the transepithelial voltage (VT) and resistance (TEER) using 4 AgCl electrodes per well configured in current-clamp mode. The apical and basolateral bath solutions both contain (in mM) 140 NaCl, 5 KCl, 2 CaCl2), 1 MgCl2, 10 Hepes, and 10 glucose (adjusted to pH 7.4 with NaOH). To inhibit basal Na+ absorption, the ENaC inhibitor benzamil (10 μM) is added to the bath. Then, the adenylate cyclase activator, forskolin (10 μM), is added to the bath to activate CFTR. The forskolin-stimulated Cl− transport is halted by addition of CFTR inhibitor-172 (20 μM) to the bath at the end of the experiment to confirm specificity. VT and TEER recordings are digitally acquired at routine intervals using TECC or MTECC software (EP Design). VT and TEER are transformed into equivalent transepithelial Cl− current (IEQ), and the Area Under the Curve (AUC) of the IEQ time course between forskolin and CFTR inhibitor-172 addition is generated using Excel (Microsoft). Efficacy is expressed as the ratio of the test agent AUC divided by vehicle AUC. EC50s based on AUC are generated using the non-linear regression log(agonist) vs. response function in Prism software (Graphpad) with HillSlope fixed=1.
If a test agent increases the AUC of the forskolin-stimulated IEQ relative to VX-809 in CF-HBE cells, and this increase is inhibited by CFTR inhibitor-172, then the test agent is considered a CFTR corrector. TECC assay efficacy is expressed as the ratio of the test agent AUC divided by VX-809 AUC. As set forth in Table 2 below, a TECC value less than 3 is marked “A”; a value between 3 and 6 is marked “B”; a value between 6 and 20 is marked “C”.

T1 sequence (P13569 423-646 limits assumed): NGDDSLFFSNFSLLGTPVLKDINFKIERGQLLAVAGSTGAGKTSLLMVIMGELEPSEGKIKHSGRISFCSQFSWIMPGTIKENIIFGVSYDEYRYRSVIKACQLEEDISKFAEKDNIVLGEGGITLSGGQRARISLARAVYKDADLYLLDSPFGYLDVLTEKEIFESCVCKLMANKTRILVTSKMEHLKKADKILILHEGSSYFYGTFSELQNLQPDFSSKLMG

## CN1CC(C)(C)COCC(C)(c2cccc(CCC(=O)O)c2)c2cnc([nH]2)-c2cc(ccc2F)Oc2c(F)cc3[nH]ccc3c2CCC1=O (single isomer, unassigned) [Compound 20B, 3-[3-(23,29-Difluoro-6,10,10,12-tetramethyl-13-oxo-8,25-dioxa-3,12,20,31-tetrazapentacyclo[24.3.1.12,5.016,24.017,21]hentriaconta-1(30),2,4,16,18,21,23,26,28-nonaen-6-yl)phenyl]propanoic acid]
[1]
  DSLS (ΔTagg): A (an ΔTagg value less than or equal to 5 °C is marked “A”)
[2]
  TECC (test agent AUC divided by VX-809 AUC): A (a TECC value less than 3 is marked “A”)

## CN1CC(C)(C)COCC(C)(c2cccc(CCC(=O)O)c2)c2cnc([nH]2)-c2cc(ccc2F)Oc2c(F)cc3[nH]ccc3c2CCC1=O (single isomer, unassigned) [Compound 20C, 3-[3-(23,29-Difluoro-6,10,10,12-tetramethyl-13-oxo-8,25-dioxa-3,12,20,31-tetrazapentacyclo[24.3.1.12,5.016,24.017,21]hentriaconta-1(30),2,4,16,18,21,23,26,28-nonaen-6-yl)phenyl]propanoic acid]
[1]
  DSLS (ΔTagg): C (a value greater than 10 °C and less than or equal to 25 °C is marked “C”)
[2]
  TECC (test agent AUC divided by VX-809 AUC): C (a value between 6 and 20 is marked “C”)

## CC1(C)CCCC(C)(c2cccc(CCC(=O)O)c2)c2cnc([nH]2)-c2cc(ccc2F)Oc2c(F)cc3[nH]ccc3c2CCC(=O)NC1 (single isomer, unassigned) [Compound 40A, 3-[3-(23,29-difluoro-6,10,10-trimethyl-13-oxo-25-oxa-3,12,20,31-tetrazapentacyclo-[24.3.1.12,5.016,24.017,21]hentriaconta-1(30),2,4,16,18,21,23,26,28-nonaen-6-yl)phenyl]propanoic acid]
[1]
  DSLS (ΔTagg): A (an ΔTagg value less than or equal to 5 °C is marked “A”)
[2]
  TECC (test agent AUC divided by VX-809 AUC): A (a TECC value less than 3 is marked “A”)

## CC1(C)CCCC(C)(c2cccc(CCC(=O)O)c2)c2cnc([nH]2)-c2cc(ccc2F)Oc2c(F)cc3[nH]ccc3c2CCC(=O)NC1 (single isomer, unassigned) [Compound 40B, 3-[3-(23,29-difluoro-6,10,10-trimethyl-13-oxo-25-oxa-3,12,20,31-tetrazapentacyclo-[24.3.1.12,5.016,24.017,21]hentriaconta-1(30),2,4,16,18,21,23,26,28-nonaen-6-yl)phenyl]propanoic acid]
[1]
  DSLS (ΔTagg): C (a value greater than 10 °C and less than or equal to 25 °C is marked “C”)
[2]
  TECC (test agent AUC divided by VX-809 AUC): B (a value between 3 and 6 is marked “B”)

## CC1(C)CCCCC(C)(c2cccc(CCC(=O)O)c2)c2cnc([nH]2)-c2cc(ccc2F)Oc2c(F)cc3[nH]ccc3c2CCC(=O)NC1 (single isomer, unassigned) [Compound 46A, 3-[3-(24,30-difluoro-6,11,11-trimethyl-14-oxo-26-oxa-3,13,21,32-tetrazapentacyclo[25.3.1.12,5.017,25.018,22]dotriaconta-1(30),2,4,17(25),18(22),19,23,27(31),28-nonaen-6-yl)phenyl]propanoic acid]
[1]
  DSLS (ΔTagg): A (an ΔTagg value less than or equal to 5 °C is marked “A”)
[2]
  TECC (test agent AUC divided by VX-809 AUC): A (a TECC value less than 3 is marked “A”)

## CC1(C)CCCCC(C)(c2cccc(CCC(=O)O)c2)c2cnc([nH]2)-c2cc(ccc2F)Oc2c(F)cc3[nH]ccc3c2CCC(=O)NC1 (single isomer, unassigned) [Compound 46B, 3-[3-(24,30-difluoro-6,11,11-trimethyl-14-oxo-26-oxa-3,13,21,32-tetrazapentacyclo[25.3.1.12,5.017,25.018,22]dotriaconta-1(30),2,4,17(25),18(22),19,23,27(31),28-nonaen-6-yl)phenyl]propanoic acid]
[1]
  DSLS (ΔTagg): C (a value greater than 10 °C and less than or equal to 25 °C is marked “C”)
[2]
  TECC (test agent AUC divided by VX-809 AUC): A (a TECC value less than 3 is marked “A”)

## CN1CC(C)(C)CCCC(C)(c2ccc(CCC(=O)O)cc2)c2cnc([nH]2)-c2cc(ccc2F)Oc2c(F)cc3[nH]ccc3c2CCC1=O (single isomer, unassigned) [Compound 47A, 3-[4-(23,29-Difluoro-6,10,10,12-tetramethyl-13-oxo-25-oxa-3,12,20,31-tetrazapentacyclo-[24.3.1.12,5.016,24.017,21]hentriaconta-1(30),2,4,16,18,21,23,26,28-nonaen-6-yl)phenyl]propanoic acid]
[1]
  DSLS (ΔTagg): A (an ΔTagg value less than or equal to 5 °C is marked “A”)
[2]
  TECC (test agent AUC divided by VX-809 AUC): A (a TECC value less than 3 is marked “A”)

## CN1CC(C)(C)CCCC(C)(c2ccc(CCC(=O)O)cc2)c2cnc([nH]2)-c2cc(ccc2F)Oc2c(F)cc3[nH]ccc3c2CCC1=O (single isomer, unassigned) [Compound 47B, 3-[4-(23,29-Difluoro-6,10,10,12-tetramethyl-13-oxo-25-oxa-3,12,20,31-tetrazapentacyclo-[24.3.1.12,5.016,24.017,21]hentriaconta-1(30),2,4,16,18,21,23,26,28-nonaen-6-yl)phenyl]propanoic acid]
[1]
  DSLS (ΔTagg): C (a value greater than 10 °C and less than or equal to 25 °C is marked “C”)
[2]
  TECC (test agent AUC divided by VX-809 AUC): A (a TECC value less than 3 is marked “A”)

## CN1CC(C)(C)CCCC(C)(c2cccc(CCC(=O)O)c2)c2cnc([nH]2)-c2cc(ccc2F)Oc2c(F)cc3[nH]ccc3c2CCC1=O (single isomer, unassigned) [Compound 49A, 3-[3-(23,29-Difluoro-6,10,10,12-tetramethyl-13-oxo-25-oxa-3,12,20,31-tetrazapentacyclo-[24.3.1.12,5.016,24.017,21]-hentriaconta-1(30),2,4,16,18,21,23,26,28-nonaen-6-yl)phenyl]propanoic acid]
[1]
  DSLS (ΔTagg): A (an ΔTagg value less than or equal to 5 °C is marked “A”)
[2]
  TECC (test agent AUC divided by VX-809 AUC): A (a TECC value less than 3 is marked “A”)

## CN1CC(C)(C)CCCC(C)(c2cccc(CCC(=O)O)c2)c2cnc([nH]2)-c2cc(ccc2F)Oc2c(F)cc3[nH]ccc3c2CCC1=O (single isomer, unassigned) [Compound 49B, 3-[3-(23,29-Difluoro-6,10,10,12-tetramethyl-13-oxo-25-oxa-3,12,20,31-tetrazapentacyclo-[24.3.1.12,5.016,24.017,21]-hentriaconta-1(30),2,4,16,18,21,23,26,28-nonaen-6-yl)phenyl]propanoic acid]
[1]
  DSLS (ΔTagg): C (a value greater than 10 °C and less than or equal to 25 °C is marked “C”)
[2]
  TECC (test agent AUC divided by VX-809 AUC): A (a TECC value less than 3 is marked “A”)

Source: patent US20250197420A1, “MACROCYCLIC COMPOUNDS, COMPOSITIONS, AND METHODS OF USING THEREOF” (Sionna Therapeutics Inc., priority 2022, published 2025)
